Values of other authors, collected in article PMC4191344, “Identification and characterization of Aβ peptide interactors in Alzheimer’s disease by structural approaches” (Frontiers in Aging Neuroscience, 2014).

Tested on: Aβ
Conditions: in vitro; ref Pollio et al., 2008
Text: Early literature was somewhat conflicting explicating the role of the EP24.15 metalloenzyme in the etiology of AD. This enzyme was originally erroneously thought to be the β-secretase activity initiating the processing of the APP into Aβ (Papastoitsis et al., [1994]) prior to the discovery of the beta amyloid cleaving enzyme-1 (BACE-1). The EP24.15 gene is located at a chromosomal locus that is close to a region involved with early onset AD (Meckelein et al., [1996]). […] In older transgenic animals, EP24.15 protein was increased in the hippocampus, supportive of a role in Aβ clearance though there was no attributable mechanism.

Substance: EP24.15: soluble, 77 kD metalloendopeptidase in the family of zinc metallopeptidases
- inhibition of Aβ toxicity by EP24.15 expression: inhibit the toxicity of Aβ in vitro
